Tests used:
[1] = test system: L1210 cells; assay: In vivo anti-tumor activity, L1210, single i.p. injection; design: species or system BDF1 mice; conditions: single i.p.
Experimental: About 24 hours after inoculation of the cells, the mice were injected intraperitoneally with varying dosages of complexes of the present invention. […] Long term survival signifies that animals were alive 60 days after inoculation with L1210 cells.

[2] = test system: Wild type L1210 leukemic cells; assay: In vitro cytotoxicity, wild type L1210 leukemic cells (L1210/0); format: cell-based; conditions: L1210, 72 hours incubation
Experimental: Four ml of cell suspension (10^5 cells/ml) are added to culture tubes and the appropriate concentration (0.01, 0.1, 1 or 10 μg/ml final concentration) of drug added to the culture tubes. After 72 hours of incubation, the cell concentration of control and experimental cultures are determined with the aid of a Coulter Counter® Model ZBf and the percent inhibition calculated. […]

[3] = test system: L1210/0 leukemia cells; assay: In vivo anti-tumor activity, L1210 (L1210/0), multiple i.p. doses; design: species or system BDF1 mice; conditions: for LTS: survivors/treated 50 days after treatment
Experimental: BDF1 mice were inoculated intraperitoneally with 10^6 L1210 cells. About 24 hours after inoculation of the cells, the mice were injected intraperitoneally with varying dosages of complexes of the present invention. Six mice were used for each dosage level in each experiment with an equal number of control mice inoculated with 10^6 L1210 cells and left untreated with a given complex. The results [%T/C=(survival time of treated animals/survival time of control animals)×100] are set forth below. Long term survival signifies that animals were alive 60 days after inoculation with L1210 cells.
The procedure of Example 16 was repeated except that the treated animals were injected with multiple doses of the complex as indicated below:
The anti-tumor activity of compound number 3 was evaluated against cells sensitive to (L1210/0) and resistant to (L1210/PDD) the standard platinum complex cis-diamminedichloroplatinum(II).
The following complexes were tested in vivo oncolytic activity following 3 i.p. injections (days 1, 5, 9) according to the protocol described in Examples 16 and 17.
BDF1 mice were innoculated intraperitoreally with 10^6 L1210 leukemia cells and treatment was begun on the next day (day 1). Two treatment schedules, i.e. single i.p. injection of the drug and i.p. injections on days 1, 5 and 9 according to the protocol described in Examples 16 and 17 were used.

[4] = 6.25 mg/kg i.p., days 1, 5, 9, 30 day observation period
[5] = 12.5 mg/kg i.p., days 1, 5, 9, 30 day observation period
[6] = 25 mg/kg i.p., days 1, 5, 9, 30 day observation period

Row | Compound | % T/C ([1]; 25 mg/kg) | % T/C ([1]; 50 mg/kg) | ID50 [2] | % T/C ([1]; 12.5 mg/kg) | also measured
1 | NC1CCCCC1N.O=C([O-])C1CC(O)CN1.O=C([O-])C1CC(O)CN1.[Pt+2] (mixture of isomers) [Compound 17, cis-bis-L-hyroxyprolinato(DACH)Pt(II).1H2 O] | 160% | 170% | 2.7 µg/mL |  | % T/C ([1]; 100 mg/kg): Toxic
2 | NC1CCCCC1N.O.O=C1CC(C(=O)[O-])C(C(=O)[O-])O1.[Pt+2] (racemic) [Compound 12, DL-isocitratolactone(DACH)Pt(II).1H2 O] | 133% | 145% | 1.0 µg/mL |  | % T/C ([3]; 25 mg/kg, days 1,5,9): 219%; % T/C ([3]; 50 mg/kg, days 1,5,9): 165%; % T/C ([1]; 100 mg/kg): Toxic
3 | NC1CCCCC1N.O.O=C([O-])C1CCCCN1.O=C([O-])C1CCCCN1.[Pt+2] (racemic) [Compound 18, cis-bis-DL-pipecolinato(DACH)Pt(II).1H2 O] | 180% | Toxic | 0.44 µg/mL | 145% | 
4 | NC1CCCCC1N.O=C([O-])[C@@H]1CCC[C@H]1C(=O)[O-].[Pt+2] (racemic) [Compound 27, trans-DL-1,2-cyclopentanedicarboxylato(DACH)Pt(II)] | 159% | 183% | 0.4 µg/mL | 158% | 
5 | NC1CCCCC1N.O=C1OC(C(O)CO)C([O-])=C1O.O=C1OC(C(O)CO)C([O-])=C1O.[Pt+2] (stereo not drawn) [Compound 6, cis-bis-ascorbato(cis-DACH)Pt(II).5H2 O] |  | Toxic |  |  | % T/C ([1]; 100 mg/kg): Toxic; ID50 ([2]; 4320 min): 4.0 µg/mL
6 | NC1CCCCC1N.O.O.O=C([O-])C1=CC(O)C(O)C(O)C1.O=C([O-])C1=CC(O)C(O)C(O)C1.[Pt+2] (stereo not drawn) [Compound 10, cis-bis-shikimato(DACH)Pt(II).2H2 O] |  | 140% |  |  | % T/C ([3]; 12.5 mg/kg, days 1,5,9): 139%; % T/C ([3]; 25 mg/kg, days 1,5,9): 149%; % T/C ([3]; 50 mg/kg, days 1,5,9): 222%; Long Term Survivors ([3]; 50 mg/kg, days 1,5,9): 1/6; % T/C ([1]; 100 mg/kg): 217%; Long Term Survivors ([1]; 100 mg/kg, alive 60 days after inoculation): 2/6
7 | NC1CCCCC1N.O.O.O=S(=O)([O-])CCO.O=S(=O)([O-])CCO.[Pt+2] (stereo not drawn) [Compound 13, cis-bis-isethionato(DACH)Pt(II).2H2 O] |  | Toxic | 0.43 µg/mL |  | % T/C ([1]; 5 mg/kg): 153%; % T/C ([1]; 10 mg/kg): 180%; % T/C ([1]; 20 mg/kg): 140%; animals died of apparent drug toxicity ([1]; 20 mg/kg): 2/6; Long Term Survivors ([1]; 20 mg/kg, alive 60 days after inoculation): 1/6
8 | NC1CCCCC1N.O.O=C([O-])C1CCN1.O=C([O-])C1CCN1.[Pt+2] [Compound 15, cis-bis-L-azetidinecarboxylato(DACH)Pt(II).1H2 O] | 148% | 161% | 3.6 µg/mL | 157% | % T/C ([1]; 100 mg/kg): Toxic
9 | NC1CCCCC1N.O.O=C([O-])C1(C(=O)[O-])CC1.[Pt+2] [Compound 20, cyclopropane-1,1-dicarboxylato(DACH)Pt(II).H2 O] |  |  | 0.41 µg/mL |  | 
10 | NC1CCCCC1N.O.O=C([O-])C1CCCCC1.O=C([O-])C1CCCCC1.[Pt+2] [Compound 22, Cis-bis-cyclohexanecarboxylato(DACH)Pt(II).1H2 O] |  | 140% | 0.5 µg/mL |  | % T/C ([1]; 100 mg/kg): 170%
11 | NC1CCCCC1N.O.O=C([O-])CC1(CC(=O)[O-])CCCCC1.[Pt+2] [Compound 23, 1,1-cyclohexanediacetato(DACH)Pt(II).1H2 O] |  |  | 0.6 µg/mL |  | 
12 | NC1CCCCC1N.O.O=C([O-])C1CCCC1.O=C([O-])C1CCCC1.[Pt+2] (stereo not drawn) [Compound 25, Cis-bis-cyclopentanecarboxylato(DACH)Pt(II).1H2 O] | 178% | 163% | 0.3 µg/mL | 161% | % T/C [3, 4]: 202%; % T/C [3, 5]: 246%; % T/C [3, 6]: 253%
13 | NC1CCCCC1N.O.O=C([O-])C1CC1.O=C([O-])C1CC1.[Pt+2] (stereo not drawn) [Compound 29, Cis-bis-cyclopropanecarboxylato(DACH)Pt(II).1H2 O] | 176% | 199% | 0.3 µg/mL | 252% | LTS ([1]; 12.5 mg/kg): 1/6; Long Term Survivors (LTS) ([1]; 50 mg/kg, alive 60 days after inoculation): 1/6
14 | NC1CCCCC1N.O.O=C([O-])C1CCC1.O=C([O-])C1CCC1.[Pt+2] (stereo not drawn) [Compound 30, Cis-bis-cyclobutanecarboxylato(DACH)Pt.1H2 O] | 154% | 145% | 0.4 µg/mL | 149% | 
15 | CCS(=O)(=O)[O-].CCS(=O)(=O)[O-].NC1CCCCC1N.O.[Pt+2] (stereo not drawn) [Compound 31, Cis-bis-ethanesulfonato(DACH)Pt(II).H2 O] | 134% | 153% | 3.1 µg/mL | 109% | % T/C ([3]; 50 mg/kg i.p., days 1, 5, 9, 30 day observation period): 198%; LTS ([3]; 50 mg/kg, days 1, 5, 9): 1/6; % T/C ([3]; 100 mg/kg i.p., days 1, 5, 9, 30 day observation period): 295%; LTS ([3]; 100 mg/kg, days 1, 5, 9): 2/6
16 | NC1CCCCC1N.NCC(=O)[O-].NCC(=O)[O-].O.[Pt+2] (stereo not drawn) [Compound 32, Cis-bis-glycinato(DACH)Pt(II).1H2 O] | 131% | 158% | 2.5 µg/mL | 128% | 
17 | NC1CCCCC1N.O=S(=O)([O-])CCCl.O=S(=O)([O-])CCCl.[Pt+2] (stereo not drawn) [Compound 33, Cis-bis-chloroethanesulfonato(DACH)Pt(II).1H 2 O] | 144% | Toxic | 0.3 µg/mL | 188% | 
18 | NC1CCCCC1N.O=C([O-])CN(CCO)CCO.O=C([O-])CN(CCO)CCO.[Pt+2] [Compound 34, Cis-bis-bicinato(DACH)Pt(II)] | 151% | 160% | 1.2 µg/mL | 165% | 
19 | NC1CCCCC1N.O.O.O=C([O-])CNCC(=O)[O-].[Pt+2] [Compound 35, Iminodiacetato(trans-R,R--DACH)Pt(II).2H2 O] |  |  | 3.0 µg/mL |  | Long Term Survivors ([3]; Tables X and XI, days 1, 5 and 9, at maximal effective dose, alive 60 days after tumor inoculation): 2/6; Maximal Effective Dose ([3]; Tables X and XI, i.p. on days 1, 5 and 9): 25 mg/kg; % T/C ([3]; Tables X and XI, i.p. on days 1, 5 and 9, at maximal effective dose): 437%
20 | NC1CCCCC1N.O.O.O=C([O-])C1CCCN1.O=C([O-])C1CCCN1.[Pt+2] [Compound 36, Cis-bis-L-prolinato(trans-R,R--DACH)Pt(II).2H2 O] | 212% | 149% | 0.8 µg/mL | 179% | Long Term Survivors (LTS) ([1]; 25 mg/kg): 1/6
21 | NC1CCCCC1N.O=C([O-])[C@@H]1C[C@H]1C(=O)[O-].[Pt+2] [Compound 40, trans-1,2-cyclopropanedicarboxylato(DACH)Pt(II)] |  |  | 0.4 µg/mL |  | 
22 | NC1CCCCC1N.O=C([O-])[C@@H]1CC[C@H]1C(=O)[O-].[Pt+2] [Compound 41, trans-1,2-cyclobutanedicarboxylato(DACH)Pt(II)] |  |  | 0.5 µg/mL |  | 
23 | Cis-bis-cyclohexenecarboxylato(DACH)Pt(II).1H2 O [Compound 24] | 132% | 165% | 1.0 µg/mL |  | % T/C ([1]; 100 mg/kg): 105%
24 | Cis-bis-cyclopentenecarboxylato(DACH)Pt(II).2H2 O [Compound 26] | 158% | 157% | 1.3 µg/mL | 185% | % T/C [3, 4]: 189%; % T/C [3, 5]: 356%; LTS ([3]; 12.5 mg/kg, days 1, 5, 9): 1/6; % T/C [3, 6]: 300%; LTS ([3]; 25 mg/kg, days 1, 5, 9): 1/6

From US4661516A, “Diaminocyclohexane platinum complexes” (Research Corporation, priority 1984, dated 1987)
